According to US10995150B2, “Methods for inhibiting atherosclerosis by administering an anti-PCSK9 antibody” (REGENERON PHARMACEUTICALS, INC., priority 2013, dated 2021):

Tests used:
APOE*3Leiden.CETP mice [1] = test: Plasma total cholesterol, triglycerides and lipoprotein profiles; format: in vivo, mouse; conditions: for TC reductions in lipoprotein profile (FPLC): lipoprotein separation by FPLC, FIG. 1C/1D; for average plasma TC, change compared to control: alone or + atorvastatin 3.6 mg/kg/d in diet
Excerpt: Ninety female APOE*3Leiden.CETP transgenic mice (9 to 13 weeks of age), expressing human CETP under control of its natural flanking regions, were used. During the study, mice were housed under standard conditions with a 12-hour light-dark cycle and had free access to food and water. Animal experiments were approved by the Institutional Animal Care and Use Committee of The Netherlands Organization for Applied Research.
Plasma was isolated from blood collected in ethylenediaminetetraacetic acid (EDTA)-coated cups via tail vein bleeding after a 4-hour fast every 2 to 4 weeks. Plasma TC and TG were determined using enzymatic kits according to the manufacturer's protocols (cat. no. 1458216 and cat. no. 1488872, respectively; Roche/Hitachi) and average plasma TC and TG levels were calculated. Lipoprotein profiles for TC were measured after lipoprotein separation by fast protein liquid chromatography (FPLC) after 4, 12, and 18 weeks of treatment. MAb316P levels were measured by a human Fc enzyme-linked immunosorbent assay.

APOE*3Leiden.CETP mice [2] = test: Flow cytometric analysis of white blood cells (PBMC); format: in vivo, mouse
Excerpt: After 8 weeks of treatment, peripheral blood mononuclear cells (PBMCs) were isolated from fresh blood samples and were sorted into GR-1+ (neutrophils/granulocytes), GR-1− (lymphocytes/monocytes), CD3+ (T-cells), CD19+ (B-cells) and CD11b+/Ly6C^low and CD11b+/Ly6C^hi (monocytes) cells using flow cytometric (FACS) analysis. The following conjugated monoclonal antibodies were used from Becton Dickinson: GR-1 FITC, CD3 PerCpCy5-5, CD19 V450, CD11b APC and Ly6C PE-Cy7.

APOE*3Leiden.CETP mice [3] = test: Histological assessment of atherosclerosis in the aortic root; format: in vivo, mouse; conditions: 18 weeks; for lesion severity (severe type IV-V lesions) compared with the control / lesion-free sections / undiseased segments compared with the control: dose of mAb316P not specified
Excerpt: (§1) Hearts were isolated, fixed in formalin, and embedded in paraffin. Cross-sections (5 μm each) of the entire aortic root area were stained with hematoxylin-phloxin-saffron. For each mouse, four sections at intervals of 50 μm were used for quantitative and qualitative assessment of the atherosclerotic lesions. To determine atherosclerotic lesion size and severity, the lesions were classified into five categories according to the American Heart Association classification: I) early fatty streak, II) regular fatty streak, III) mild plaque, IV) moderate plaque, and V) severe plaque. Total lesion area and number of lesions per cross-section, as well as the percentage undiseased segments, were calculated. To assess lesion severity as a percentage of all lesions, type I-Ill lesions were classified as mild lesions, and type IV-V lesions were classified as severe lesions. To determine the total plaque load in the thoracic aorta, perfusion-fixed aortas (from the aortic origin to the diaphragm) were cleaned of extravascular fat, opened longitudinally, pinned en face, and stained for lipids with oil-red O as described previously by Verschuren et al. (Arterioscler Thromb Vasc Biol. 2005; 25:161-167). Data were normalized for analyzed surface area and expressed as percentage of the stained area. Photos/images were taken with the Olympus BX51 microscope and lesion areas were measured using Cell D imaging software (Olympus Soft Imaging Solutions).

APOE*3Leiden.CETP mice [4] = test: Total plaque load in the aortic arch (oil-red O); format: in vivo, mouse; conditions: mAb316P 10 mg/kg, alone or + atorvastatin 3.6 mg/kg/d; 18 weeks
Excerpt: as §1, with “To determine the total plaque load in the thoracic aorta, perfusion-fixed aortas (from the aortic origin to the diaphragm) were cleaned of extravascular fat, opened longitudinally, pinned en face, and stained for lipids with oil-red O as described previously by Verschuren et al. (Arterioscler Thromb Vasc Biol. 2005; 25:161-167).” left out

hepatic LDLR protein = test: Hepatic LDLR protein levels (Western blot); format: in vivo, mouse; conditions: alone or + atorvastatin 3.6 mg/kg/d, 18 weeks
Method: Liver tissues were homogenized in lysis buffer (50 mM Tris-HCL [pH=7.4], 150 mM NaCl, 0.25% deoxycholic acid, 1% NP-40 [Igepal], 1 mM EDTA, protease inhibitor cocktail [complete, Roche], 1 mM PMSF, 1 mM Na3VO4) and then centrifuged at 6500 rpm at 4° C. for 30 minutes. Protein concentration in cell lysates was determined by bicinchonic acid protein assay (Thermo Scientific) according to manufacturer's instructions. 50 μg of protein lysates was separated by SDS-PAGE and then transferred to polyvinylidene fluoride membranes (Millipore). Blots were subjected to goat anti-mouse LDLR from R&D Systems and rabbit anti-goat horseradish peroxidase (HRP) from AbD Serotec or mouse anti-α-Tubulin from Sigma and horse anti-mouse HRP from Cell Signaling Technologies (according to the manufacturer's instructions); blots were developed with West Femto Super Signal ECL (Thermo Scientific) and subjected to the Chemi-Doc-it imaging system. Intensities of protein bands were quantified using Image J software.

APOE*3Leiden.CETP mice [5] = test: Liver weight and hepatic lipid analysis; conditions: atorvastatin 3.6 mg/kg/d alone; 18 weeks
Excerpt: Mice received a semi-synthetic cholesterol-rich diet, containing 15% (w/w) cacao butter and 0.15% cholesterol (Western-type diet [WTD]; Hope Farms, Woerden, The Netherlands) for a run-in period of 3 weeks to increase plasma total cholesterol (TC) levels up to ˜15 mmol/L. Body weight (BW) and food intake were monitored regularly during the study. […] At the end of the treatment period, all animals were sacrificed by CO2 inhalation. Livers and hearts were isolated to assess hepatic LDLR protein levels, lipid content, atherosclerosis development, and plaque composition.
Liver tissue samples were homogenized in phosphate-buffered saline, and the protein content was measured. Lipids were extracted, separated by high-performance thin-layer chromatography on silica gel plates, and analyzed with TINA2.09 software (Raytest Isotopen Messgerate Straubenhardt, Germany), as previously described by Post et al. (Hepatology. 1999; 30:491-500).

[6] = mAb316P 3 mg/kg weekly s.c., 18 weeks
[7] = mAb316P 10 mg/kg weekly s.c., 18 weeks
[8] = 10 mg/kg MAb316P and/or atorvastatin, after 8 weeks of treatment, mean ± SD
[9] = mAb316P 10 mg/kg, alone or + atorvastatin, 8 weeks
[10] = mAb316P 3 mg/kg weekly s.c., alone or + atorvastatin 3.6 mg/kg/d
[11] = mAb316P 10 mg/kg weekly s.c., alone or + atorvastatin 3.6 mg/kg/d

## mAb316P: human anti-PCSK9 antibody; HCVR SEQ ID NO:1, LCVR SEQ ID NO:6
APOE*3Leiden.CETP mice [1]; alone, or both with atorvastatin 3.6 mg/kg/d, 18 weeks
  TC, 3 mg mAb316P versus 10 mg mAb316P (dose dependence): −14%
APOE*3Leiden.CETP mice [1]
  TC reductions in lipoprotein profile (FPLC): confined to apoB-containing lipoproteins
APOE*3Leiden.CETP mice [1]; [6]
  average plasma TC, change compared to control: −37%
  average plasma TG, change compared to control: −33%
APOE*3Leiden.CETP mice [1]; [7]
  average plasma TC, change compared to control: −46%
  average plasma TG, change compared to control: −39%
APOE*3Leiden.CETP mice [2]; [8]
  B-cells: 66.3 ± 15.0 % of PBMC population
  CD11b+ Ly6C^hi: 57.5 ± 8.4 % of monocytes
  CD11b+ Ly6C^low: 40.0 ± 8.0 % of monocytes
  Lymphocytes/Monocytes: 92.9 ± 2.0 % of PBMC population
  Monocytes: 8.9 ± 2.5 % of PBMC population
  Neutrophils/Granulocytes: 7.1 ± 2.0 % of PBMC population
APOE*3Leiden.CETP mice [2]; [9]
  anti-inflammatory Ly6C^low monocytes, change vs control: +12%
  granulocytes/neutrophils (as % of PBMC population), change vs control: −20%
  monocytes (as % of PBMC population), change vs control: −28%
  pro-inflammatory Ly6C^hi monocytes, change vs control: −8%
APOE*3Leiden.CETP mice [3]
  lesion severity (severe type IV-V lesions) compared with the control: fewer severe (type IV-V) lesions
  lesion-free sections / undiseased segments compared with the control: more lesion-free sections
APOE*3Leiden.CETP mice [3]; [10]
  atherosclerotic lesion size (aortic root), change compared to the control: −71%
  number of lesions per cross-section, change compared to the control: −17%
APOE*3Leiden.CETP mice [3]; [11]
  atherosclerotic lesion size (aortic root), change compared to the control: −88%
  number of lesions per cross-section, change compared to the control: −30%
APOE*3Leiden.CETP mice [4]
  total plaque area in the aortic arch, change vs control: −67%
Hepatic LDLR protein; mAb316P 3 mg/kg weekly s.c.
  Hepatic LDLR protein levels, change vs control: +80%
Hepatic LDLR protein; mAb316P 10 mg/kg weekly s.c.
  Hepatic LDLR protein levels, change vs control: +133%

## CC(C)c1c(C(=O)Nc2ccccc2)c(-c2ccccc2)c(-c2ccc(F)cc2)n1CC[C@@H](O)C[C@@H](O)CC(=O)O [atorvastatin, reference compound]
APOE*3Leiden.CETP mice [5]
  liver weight, change compared to the control group: −15%
APOE*3Leiden.CETP mice [1]
  TC reductions in lipoprotein profile (FPLC): confined to apoB-containing lipoproteins
APOE*3Leiden.CETP mice [2]; [8]
  B-cells: 69.5 ± 17.4 % of PBMC population
  CD11b+ Ly6C^hi: 51.2 ± 6.4 % of monocytes
  CD11b+ Ly6C^low: 47.8 ± 6.3 % of monocytes
  Lymphocytes/Monocytes: 94.9 ± 1.6 % of PBMC population
  Monocytes: 5.3 ± 2.4 % of PBMC population
  Neutrophils/Granulocytes: 5.1 ± 1.6 % of PBMC population
  T-cells: 17.0 ± 4.8 % of PBMC population
APOE*3Leiden.CETP mice [3]
  lesion severity (severe type IV-V lesions) compared with the control: reduced severity to a lesser extent
  lesion-free sections / undiseased segments compared with the control: no effect
APOE*3Leiden.CETP mice [3]; atorvastatin 3.6 mg/kg/d alone
  atherosclerotic lesion size (aortic root), change compared to the control: −35%
  effect on the number of lesions: no effect
